Like-named read-outs stand apart in the source and are kept apart here.
Columns and labels:
primary rat hepatocytes = settings: for substrate stability in control incubation: absence of hepatocytes; for substrate stability in control incubation / remaining percentage: 1 µM; for remaining percentage: freshly isolated normal rat hepatocytes; for remaining percentage / decrease of formation compared to normal rat hepatocytes: 6 h; for decrease of formation compared to normal rat hepatocytes: linezolid 1 µM
Description: Primary rat hepatocytes were isolated from normal, CCl4-induced, and 5/6 Nx rats according to the previously described two-step collagenase method ([36]). Rats were anesthetized with urethane (1 g/kg), their abdomens were opened, and their portal veins were cannulated with a needle. The liver was perfused with HBSS solution (without calcium and magnesium ions) containing 5 mM EGTA at a rate of 50–60 mL/min using a peristaltic pump until the blood in the liver was removed. HBSS solution containing 7.5 mg/50 mL collagenase was perfused for 20 min until the liver was completely softened and the surface collapsed. The liver was gently removed and placed in a precooled HBSS solution containing 10% FBS. Hepatocytes were eluted and centrifuged at 500 × g for 5 min, and the supernatant was removed to obtain primary rat hepatocytes. Isolated primary rat hepatocytes were washed three times and suspended in DMEM containing 10% FBS, 100 µg/mL streptomycin, 100 U/ml penicillin, and 10 µg/mL insulin at pH 7.65.
Freshly isolated rat hepatocytes at a density of 1.0 × 10^6 cells/well were placed in plates pre-coated with collagen and incubated for 18–24 h in a humidified incubator at 37°C and 5% CO2. […] Control incubations were performed in the absence of hepatocytes to test the substrate stability. Three replicate samples (1 mL each) were collected after 1, 2, 4, and 6 h of incubation. Then, 800 µL of methanol was immediately added, and the samples were transferred to a freezer (−20°C) to terminate metabolism. Hepatocytes were quickly washed three times with ice-cold HBSS and then lysed by the addition of 300 µL of purified water.
An AB Sciex 4000 Mass Spectrometer (AB Sciex, Framingham, MA, USA) and Shimadzu LC 20 series (Shimadzu, Kyoto, Japan) were used for HPLC-MS/MS. […] The Phenomenex Synergi Hydro-RP column (30 mm × 2 mm, 4 µm, Phenomenex Inc., Torrance, CA, USA) was used for chromatographic separation. The mobile phase consisted of 0.1% (vol/vol) formic acid in water (A) and 0.1% (vol/vol) formic acid in acetonitrile (B). The gradient conditions were as follows: 0–1.4 min, 15%–80% B; 1.4–1.8 min, 80% B; 1.8–1.81 min, return to 15% B; 1.81–2.1 min, equilibrium. The flow rate was 450 µL/min. Data acquisition and analysis were performed using the Analyst software (version 1.4.1, AB Sciex).
(§1) Atotal is the total cumulative amount excreted in urine over 24 h. D is the administered dose. The scale factor is 4,680 (10^6 cells/kg). All data are expressed as mean ± standard deviation (SD). Statistical analysis was performed using Student’s two-tailed unpaired t-test or nonparametric Mann-Whitney U test with SPSS Statistics 19.0 (SPSS Inc., Chicago, IL, USA). Statistical significance was set at P < 0.05.

[1] = Serum biochemical parameters of CCl4-induced rats; format: in vivo, rat
in vivo = settings: rat, in vivo; for half-life: t1/2
Excerpt: The control group rats were intraperitoneally injected with equal volumes of soybean oil. […] The upper and lower poles of the left kidney were removed under urethane anesthesia (1 g/kg; administered by i.p. injection). One week later, the right kidney was completely excised. Rats in the control group underwent a sham operation ([35]). Serum creatinine (CREA), blood urea nitrogen (BUN), aspartate aminotransferase (AST), alanine aminotransferase (ALT), alkaline phosphatase (ALP), lactate dehydrogenase (LDH), and total bilirubin (TBIL) levels were measured using commercial kits (Shanghai Enzyme-linked Biotechnology Co., Ltd., Shanghai, China) according to the protocols described by the manufacturer before pharmacokinetic experiments.
The rats were first divided into two groups: i.v. or i.g. administration groups. These two groups were further divided into the following four subgroups (n = 5): soybean oil-treated control rats, CCl4-induced rats, sham-operated control rats, and 5/6 Nx rats. […] Blood samples (200 µL) were collected from the retro-orbital venous plexus into heparinized tubes at 0 (pre-dose), 0.25, 0.5, 0.75, 1, 2, 3, 4, 6, 8, 12, and 24 h after i.g. administration, and at 0 (pre-dose), 0.083, 0.25, 0.5, 0.75, 1, 2, 3, 4, 6, 8, 12, and 24 h after i.v. administration. Plasma samples were separated by centrifugation at 6,000 × g for 5 min at 4°C and stored at −80°C until further analysis using HPLC.
Chromatographic separation was performed using the SinoPak BEH T-C18 column (4.6 mm × 150 mm, 5 µm, Hi-tech Zone, China) at 35°C. A photodiode array detector was set at a wavelength of 254 nm. The mobile phase consisted of 0.1% (vol/vol) formic acid in water (A) and acetonitrile (B). The gradient conditions were as follows: 0–4.0 min, 14%–86% B; 4.0–5.0 min, […]; 5.0–5.7 min, return to 14% B; 5.7–8.0 min, equilibrium. The flow rate was 1.0 mL/min.
Plasma and tissue homogenate samples (100 µL) were mixed with 10 µL of IS (50.0 mg/L) and 200 µL of acetonitrile, followed by vortex-mixing for 3 min. The mixture was centrifuged at 15,000 × g for 15 min at 4°C. Then, 5 µL of the supernatant was analyzed. The urine samples were diluted and directly injected for measurement.
The area under the plasma concentration-time curve from 0 to infinity (AUC0-∞), time to maximum concentration (tmax), Cmax, t1/2, CL, and Vd were calculated by non-compartmental model analysis using the Phoenix 8.1.0 WinNonlin software (Pharsight Corp, Princeton, NJ, USA). The renal clearance (CLr), in vitro hepatic clearance (CLint, in vitro), and bioavailability (F) were calculated using the following equations:
F (%) = Div×AUC0−∞, ig/Dig×AUC0−∞, iv
as §1

[2] = Tissue distribution after i.g. or i.v. linezolid in control, CCl4-induced and 5/6 Nx rats; format: in vivo, rat; settings: after i.g. or i.v. linezolid; LLOQ 0.25 mg/L
Excerpt: These two groups were further divided into the following three subgroups (n = 4): control rats, CCl4-induced rats, and 5/6 Nx rats. […] The rats were euthanized immediately after blood sampling. The brain, heart, lungs, liver, kidneys, and small intestine were collected. The collected tissues were washed and homogenized in normal saline (three-fold volume of each sample weight) using a multi-sample tissue grinder (Tissuelyser-48L; Shanghai Jingxin Industrial Development Co. Ltd., Shanghai, China). After centrifugation of the homogenate samples at 12,000 × g for 10 min at 4°C, the supernatants were stored at −80°C.
The flow rate was 1.0 mL/min.
Then, 5 µL of the supernatant was analyzed.

megakaryocytic cells = settings: cited from earlier work
[3] = cited from earlier work

## O=c1ccc2ccc(O)cc2o1 [7-hydroxycoumarin]
Primary rat hepatocytes
  substrate stability in control incubation: No reductions
  remaining percentage: < 5%

## ClC(Cl)(Cl)Cl [CCl4, Carbon tetrachloride]
[1]
  serum ALT relative to soybean oil-treated control rats: 6.92 fold
  serum AST relative to soybean oil-treated control rats: 10.7 fold
  serum LDH relative to soybean oil-treated control rats: 1.86 fold
  serum TBIL relative to soybean oil-treated control rats: 8.40 fold
[1]; 2.5 mL/kg i.p., 24 h, serum
  ALP: 257.1 ± 94.3 U/L
  ALT: 418.8 ± 129.4 U/L
  AST: 2399.5 ± 203.2 U/L
  CREA: 17.1 ± 7.3 µmol/L
  LDH: 2477.6 ± 220.8 U/L
  TBTL: 4.2 ± 2.0 µmol/L

## CC(=O)NC[C@H]1CN(c2ccc(N(CCO)CC(=O)O)c(F)c2)C(=O)O1 [PNU-142586]
In vivo; Sprague-Dawley
  decrease of CLr in comparison to sham-operated control rats: 33.3%
  share of the total plasma concentrations: 5.6–8.5%
In vivo; Sprague-Dawley, iv
  AUC0-∞ relative to sham-operated control rats: 2.82 fold
  decrease of AUC0-∞ compared to soybean oil-treated control rats: 13.6%
  decrease of CLr in comparison to sham-operated control rats: 33.3%
  t1/2 relative to control rats: 1.41 fold
  t1/2 relative to sham-operated control rats: 1.53 fold
In vivo; Sprague-Dawley, iv, 25 mg/kg
  Cmax: 1690 ± 230 ng/mL
  half-life: 2.11 ± 0.42 h
In vivo; Sprague-Dawley, po
  AUC0-∞ relative to sham-operated control rats: 1.88 fold
  decrease of AUC0-∞ compared to soybean oil-treated control rats: 10.4%
  t1/2 relative to control rats: 1.32 fold
  t1/2 relative to sham-operated control rats: 1.15 fold
In vivo; Sprague-Dawley, po, 63 mg/kg
  Cmax: 1860 ± 210 ng/mL
  half-life: 4.31 ± 0.52 h
In vivo; Sprague-Dawley, po, 63 mg/kg, tmax
  Tmax: 2.8 ± 0.45 h
In vivo
  cumulative urinary excretion rate: 3.5%
[2]
  detection in brain, heart, lung, liver, kidney, or small intestine tissues: No PNU-142586 was detected
Primary rat hepatocytes; 5/6 Nx rat hepatocytes
  decrease of formation compared to normal rat hepatocytes: 28.9%
Primary rat hepatocytes; hepatocytes from CCl4-induced rats
  decrease of formation compared to normal rat hepatocytes: 95.6%
Megakaryocytic cells
  cytotoxic effects on platelet precursor cell lines: cytotoxic effects
[3]
  accumulation in patients with renal failure: accumulated
[3]; humans
  share of dosed linezolid in the urine: more than 30%

## C[C@]12CC[C@H]3[C@@H](CCC4=CC(=O)CC[C@@]43C)[C@@H]1CC[C@@H]2O [testosterone]
Primary rat hepatocytes
  substrate stability in control incubation: No reductions
  remaining percentage: less than 2%

Reference: publication PMC12057336 (Antimicrobial Agents and Chemotherapy, 2025)
